Laboratory results as given in patent publication US20090270400A1 (priority 2004, published 2009).
Read-outs that look alike come from different tables or passages of the source.

System: carrageenin-induced hyperalgesia on a rat's paw
Details: in vivo

Row | Compound | dose starting from which the pain threshold following a mechanical stimulus applied to the rats' paws is significantly reduced (iv) | dose starting from which the pain threshold following a mechanical stimulus applied to the rats' paws is significantly reduced (ip)
1 | N[C@@H](CSSC[C@H](N)C(=O)N1CCn2cc(-c3ccccc3)nc2[C@@H]1CC1CCCCC1)C(=O)N1CCn2cc(-c3ccccc3)nc2[C@@H]1CC1CCCCC1 [compound 1, (1R)-1-[({(2R)-2-amino-3-[(8S)-8-(cyclohexylmethyl)-2-phenyl-5,6-dihydroimidazo [1,2-α]pyrazin-7(8H)-yl]-3-oxopropyl}dithio)methyl]-2-[(8S)-8-(cyclohexylmethyl)-2-phenyl-5,6-dihydroimidazo [1,2-α]pyrazin-7(8H)-yl]-2-oxoethylamine] | ≥ 1 mg/kg | –
2 | CN1CC[C@]23c4c5ccc(O)c4O[C@H]2[C@@H](O)C=C[C@H]3[C@H]1C5 [morphine] | – | ≥ 1 mg/kg
